Laboratory results: patent US7964560B2, “Hepatitis C virus inhibitors” (Bristol-Myers Squibb Company, priority 2008, dated 2011)

Experiments:
human liver cathepsin B = molecular target: T1, human liver cathepsin B (Homo sapiens, UniProt P07858); assay: Specificity assay, cathepsin B; format: biochemical
T1 construct: purchased Sigma, EMDbiosciences; host or cells: human liver
Experimental: (§1) The specificities of compounds of the present disclosure were determined against a variety of serine proteases: human neutrophil elastase (HNE), porcine pancreatic elastase (PPE) and human pancreatic chymotrypsin and one cysteine protease: human liver cathepsin B. In all cases a 96-well plate format protocol using a fluorometric Amino-Methyl-Coumarin (AMC) substrate specific for each enzyme was used as described previously (PCT Patent Application No. WO 00/09543) with some modifications to the serine protease assays. All enzymes were purchased from Sigma, EMDbiosciences while the substrates were from Bachem, Sigma and EMDbiosciences.
(§2) Compound concentrations varied from 100 to 0.4 μM depending on their potency. The enzyme assays were each initiated by addition of substrate to enzyme-inhibitor pre-incubated for 10 min at room temperature and hydrolysis to 15% conversion as measured on CYTOFLUOR®.
100 mM NaOAC (Sodium Acetate) pH 5.5, 3% DMSO, 1 mM TCEP (Tris(2-carboxyethyl)phosphine hydrochloride), 5 nM Cathepsin B (enzyme stock activated in buffer containing 20 mM TCEP before use), and 2 μM Z-FR-AMC diluted in H2O.
(§3) The percentage of inhibition was calculated using the formula: [1−((UVinh−UVblank)/(UVctl−UVblank))]×100
(§4) A non-linear curve fit was applied to the inhibition-concentration data, and the 50% effective concentration (IC50) was calculated by the use of Excel XLfit software.

[1] = test system: HCV replicon (Renilla luciferase reporter) in HUH-7 cells; assay: HCV replicon luciferase reporter assay; format: cell-based, Hepatitis C virus (strain 1b); details: Huh-7, 96 h, 4 days
[2] = molecular target: T2, human pancreatic chymotrypsin (Homo sapiens, UniProt P17538); assay: Specificity assay, chymotrypsin; format: biochemical
T2 construct: purchased Sigma, EMDbiosciences
T2 sequence (P17538 19-263): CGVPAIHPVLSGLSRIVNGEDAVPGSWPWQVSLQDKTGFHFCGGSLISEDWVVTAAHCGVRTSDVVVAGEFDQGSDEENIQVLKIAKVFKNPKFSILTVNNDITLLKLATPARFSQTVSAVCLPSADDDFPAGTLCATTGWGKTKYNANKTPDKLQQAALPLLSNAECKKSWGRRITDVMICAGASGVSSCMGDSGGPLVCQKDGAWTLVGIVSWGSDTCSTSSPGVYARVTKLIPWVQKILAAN
Experimental: as §1, §2
50 mM Tris(hydroxymethyl)aminomethane hydrochloride (Tris-HCl) pH 8, 0.5 M Sodium Sulfate (Na2SO4), 50 mM NaCl, 0.1 mM EDTA, 3% DMSO, 0.01% Tween-20 with 5 μM LLVY-AMC and 1 nM Chymotrypsin.
as §3, §4

[3] = molecular target: T3, HCV NS3/4A protease complex, H77 strain (Hepatitis C virus genotype 1a, UniProt P27958, C1454S/C1711G); assay: FRET peptide assay to monitor HCV NS3/4A proteolytic activity (H77 strain); format: biochemical, Hepatitis C virus (1a genotype)
T3 construct: DNA encoding the recombinant HCV NS3/4A protease complex (amino acids 1027 to 1711) for these strains; His tag (inferred from pET21b vector and Ni-NTA purification); made in house; host or cells: Escherichia coli BL21 (DE3), pET21b
T3 sequence (P27958 1027-1711 C1454S/C1711G, one chain of several): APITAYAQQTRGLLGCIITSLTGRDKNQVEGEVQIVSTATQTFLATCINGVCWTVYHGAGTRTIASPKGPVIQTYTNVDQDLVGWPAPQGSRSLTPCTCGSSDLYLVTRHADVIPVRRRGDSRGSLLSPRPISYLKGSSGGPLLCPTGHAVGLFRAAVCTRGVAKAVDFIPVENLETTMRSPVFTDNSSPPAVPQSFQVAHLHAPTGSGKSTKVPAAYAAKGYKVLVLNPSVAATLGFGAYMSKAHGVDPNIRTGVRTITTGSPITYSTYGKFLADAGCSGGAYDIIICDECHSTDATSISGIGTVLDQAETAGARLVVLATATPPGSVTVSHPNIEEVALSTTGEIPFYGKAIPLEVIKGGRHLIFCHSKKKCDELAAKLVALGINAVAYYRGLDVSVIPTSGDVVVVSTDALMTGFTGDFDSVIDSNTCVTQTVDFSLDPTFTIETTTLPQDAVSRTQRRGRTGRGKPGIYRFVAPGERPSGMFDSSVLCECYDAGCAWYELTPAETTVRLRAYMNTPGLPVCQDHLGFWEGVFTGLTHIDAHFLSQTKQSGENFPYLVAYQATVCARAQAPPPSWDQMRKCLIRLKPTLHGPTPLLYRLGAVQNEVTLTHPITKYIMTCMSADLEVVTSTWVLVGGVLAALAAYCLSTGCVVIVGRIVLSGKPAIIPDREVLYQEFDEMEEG
Source text: HCV […] protease complexes, derived from the BMS strain, H77 strain or J4L6S strain, were generated, as described below. These purified recombinant proteins were generated for use in a homogeneous assay (see below) to provide an indication of how effective compounds of the present disclosure would be in inhibiting HCV NS3 proteolytic activity.
Serum from an HCV-infected patient was obtained from Dr. T. Wright, San Francisco Hospital. An engineered full-length cDNA (compliment deoxyribonucleic acid) template of the HCV genome (BMS strain) was constructed from DNA fragments obtained by reverse transcription-PCR (RT-PCR) of serum RNA (ribonucleic acid) and using primers selected on the basis of homology between other genotype 1a strains. From the determination of the entire genome sequence, a genotype 1a was assigned to the HCV isolate according to the classification of Simmonds et al. (See Simmonds, P. et al., J. Clin. Microbiol., 31(6), 1493-1503 (1993)). […] The infectious clones, H77 (1a genotype) and J4L6S (1b genotype) were obtained from R. Purcell (NIH) and the sequences are published in GENBANK® (AAB67036, see Yanagi, M. et al., Proc. Natl. Acad. Sci. U.S.A., 94(16):8738-8743 (1997); AF054247, see Yanagi, M. et al., Virology, 244(1):161-172 (1998)).
The H77 and J4L6S strains were used for production of recombinant NS3/4A protease complexes. […]

## C=C[C@@H]1C[C@]1(NC(=O)[C@@H]1C[C@@](SCCCC)(c2ccc(-c3ccccc3)cc2)CN1C(=O)[C@@H](NC(=O)OC(C)(C)C)C(C)(C)C)C(=O)NS(=O)(=O)C1CC1 [Example 1, tert-butyl (S)-1-((2S,4R)-4-(biphenyl-4-yl)-4-(butylthio)-2-((1R,2S)-1-(cyclopropylsulfonylcarbamoyl)-2-vinylcyclopropylcarbamoyl)pyrrolidin-1-yl)-3,3-dimethyl-1-oxobutan-2-ylcarbamate]
Human liver cathepsin B
  IC50: 7.5 µM
[1]
  EC50: 0.006 µM
[2]
  IC50: 13.2 µM
[3]
  IC50: 0.0017 µM
